# Like-named read-outs stand apart in the source and are kept apart here.
# Assays:
# human 5HT7 receptors = molecular target: T1, human 5HT7 receptors (Homo sapiens, UniProt P34969); experiment: h5-HT7 receptor radioligand binding ([3H]5-CT)
# T1 construct: expressed in transfected cells; host or cells: Chinese hamster ovary cells (membranes)
# Method: (§1) Consistent with standard competition radioligand binding assays, the methodology was based on displacement of radioligand from tissues (or cell lines) bearing the receptor of interest (Cheng, Y. and Prusoff, W. H. (1973). Biochem. Pharmacol. 22, 3099-3108). The measurements were based on the binding of a single concentration of radiolabeled ligand in the presence of various concentrations of unlabeled ligand.
# (§2) Tissues (or cellular plasma membrane fractions) were incubated in the presence of radioligand at equilibrium and in the presence of a range of concentrations of the test compounds (which were non-radiolabeled), and the displaced radioligand was separated from the membranes by filtration. Nonspecific binding was assessed by measuring displacement of the radioligand in the presence of a compound known to block binding of the radioligand to the receptor. Finally, the concentration-response relationship for radioligand displacement (corrected for non-specific binding) was used to assess binding of the test compound to the receptor.
# human M3 receptors = molecular target: T2, human M3 receptors (Homo sapiens, UniProt P20309); experiment: hM3 receptor radioligand binding ([3H]NMS)
# T2 construct: expressed in transfected cells; host or cells: Chinese hamster ovary cells (membranes)
# Method: as §1, §2
# human 5HT1A receptors = molecular target: T3, human 5HT1A receptors (Homo sapiens, UniProt P08908); experiment: h5-HT1A receptor radioligand binding ([3H]8OH-DPAT); conditions: pKi reported on a scale of 1 through 5
# T3 construct: expressed in transfected cells; host or cells: Chinese hamster ovary cells (membranes)
# T3 sequence (P08908 1-422): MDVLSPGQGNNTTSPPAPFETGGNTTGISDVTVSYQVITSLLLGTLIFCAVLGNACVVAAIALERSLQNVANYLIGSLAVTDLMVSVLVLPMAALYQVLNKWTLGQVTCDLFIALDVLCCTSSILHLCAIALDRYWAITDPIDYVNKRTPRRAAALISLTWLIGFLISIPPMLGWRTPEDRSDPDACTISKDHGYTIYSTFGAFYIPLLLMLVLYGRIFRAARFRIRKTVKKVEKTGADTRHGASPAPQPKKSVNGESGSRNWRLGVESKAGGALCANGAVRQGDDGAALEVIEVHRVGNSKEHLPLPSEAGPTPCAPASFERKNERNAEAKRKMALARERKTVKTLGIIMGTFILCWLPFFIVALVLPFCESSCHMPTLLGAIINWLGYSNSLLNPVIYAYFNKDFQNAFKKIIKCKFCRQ
# Method: as §1, §2
# human M1 receptors = molecular target: T4, human M1 receptors (Homo sapiens, UniProt P11229); experiment: hM1 receptor radioligand binding ([3H]NMS); conditions: pKi reported on a scale of 1 through 5
# T4 construct: expressed in transfected cells; host or cells: Chinese hamster ovary cells (membranes)
# T4 sequence (P11229 1-460): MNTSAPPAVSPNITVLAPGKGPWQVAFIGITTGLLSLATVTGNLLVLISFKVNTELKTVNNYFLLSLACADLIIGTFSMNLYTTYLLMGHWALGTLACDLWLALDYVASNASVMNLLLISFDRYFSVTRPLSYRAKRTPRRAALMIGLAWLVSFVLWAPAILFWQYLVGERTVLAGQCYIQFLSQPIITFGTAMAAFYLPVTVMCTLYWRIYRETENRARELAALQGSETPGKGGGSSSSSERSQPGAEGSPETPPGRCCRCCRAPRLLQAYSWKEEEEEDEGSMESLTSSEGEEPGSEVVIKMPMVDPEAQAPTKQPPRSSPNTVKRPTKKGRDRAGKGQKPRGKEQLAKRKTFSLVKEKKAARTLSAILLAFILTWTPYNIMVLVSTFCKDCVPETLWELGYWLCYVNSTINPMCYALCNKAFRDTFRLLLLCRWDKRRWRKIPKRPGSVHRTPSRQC
# Method: as §1, §2
# [1] = molecular target: T5, human D2s dopamine receptors (Homo sapiens, UniProt P14416); experiment: hD2S receptor radioligand binding ([3H]spiperone); conditions: pKi reported on a scale of 1 through 5
# T5 construct: expressed in transfected cells; host or cells: Chinese hamster ovary cells (membranes)
# Method: as §1, §2
# human 5HT2C receptors = molecular target: T6, human 5HT2C receptors (Homo sapiens, UniProt P28335); experiment: h5-HT2C receptor radioligand binding ([3H]Mesulergine); conditions: pKi reported on a scale of 1 through 5
# T6 construct: expressed in transfected cells; host or cells: human embryo kidney cells (membranes)
# T6 sequence (P28335 33-458): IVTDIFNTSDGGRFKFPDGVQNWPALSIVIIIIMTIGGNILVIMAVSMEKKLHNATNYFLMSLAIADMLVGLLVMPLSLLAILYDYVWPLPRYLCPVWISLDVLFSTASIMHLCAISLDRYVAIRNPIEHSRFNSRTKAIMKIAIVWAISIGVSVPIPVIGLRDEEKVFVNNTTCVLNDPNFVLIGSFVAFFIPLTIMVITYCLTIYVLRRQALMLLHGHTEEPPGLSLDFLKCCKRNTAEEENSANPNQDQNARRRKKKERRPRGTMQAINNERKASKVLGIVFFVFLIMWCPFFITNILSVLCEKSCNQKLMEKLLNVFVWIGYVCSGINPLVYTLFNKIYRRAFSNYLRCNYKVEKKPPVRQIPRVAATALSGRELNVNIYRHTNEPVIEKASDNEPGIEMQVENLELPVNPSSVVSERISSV
# Method: The measurements were based on the binding of a single concentration of radiolabeled ligand in the presence of various concentrations of unlabeled ligand.
# as §2
# [2] = molecular target: T7, human D2L dopamine receptors (Homo sapiens, UniProt P14416); experiment: hD2L receptor radioligand binding ([3H]spiperone)
# T7 construct: expressed in transfected cells; host or cells: insect Sf9 cells (membranes)
# Method: as §1, §2
# human H1 receptors = molecular target: T8, human H1 receptors (Homo sapiens, UniProt P35367); experiment: hH1 receptor radioligand binding ([3H]Pyrilamine); conditions: pKi reported on a scale of 1 through 5
# T8 construct: expressed in transfected cells; host or cells: Chinese hamster ovary cells (membranes)
# Method: as §1, §2
# 5-HT2A receptor = molecular target: T9, 5-HT2A receptor (Rattus norvegicus, UniProt P14842); experiment: cell-based
# T9 construct: Eight strips of tissue (0.5 cm long) were cut. and were mounted in 10 ml organ baths; tissue Charles River Laboratories; host or cells: rat aorta strips, endothelium removed
# Method: The rat aorta (approximately 7 cm) was isolated and removed from the animal (male Sprague Dawley rat, Charles River Laboratories, Hollister, Calif.). The endothelium was removed mechanically. Eight strips of tissue (0.5 cm long) were cut. and were mounted in 10 ml organ baths kept at 37° C. with Krebs solution (composition in mM: NaCl (118.2), KCl (4.6), CaCl2 (2.5), MgSO4 (1.2), KH2PO4 (1.2), NaHCO3 (24.8) and dextrose (10.0)) that was constantly aerated with carbogen gas (95% O2/5% CO2) to obtain a pH of 7.4. The tissues were subjected to a resting tension of 2 g (3 times, 15 minutes apart, equilibrated in Krebs solution). The tissues were then washed 15 minutes later. Ten minutes later, the tissues were then exposed to 0.1 μM phenylephrine. At the maximal effect, 1 μM acetylcholine was added to confirm the absence of endothelium and then washed twice, 2 minutes apart.
# Contractions were recorded as changes in tension from baseline and expressed as a percentage of the maximum response of the agonist (5-HT) concentration-effect curve. Agonist concentration-response curves were fitted using a nonlinear iterative fitting program (GraphPad Prism) using the relationship of Parker and Waud (Parker, R. B. and Waud, D. R. (1971). Pharmacological estimation of drug-receptor dissociation constants. Statistical evaluation. I. Agonists. J. Pharmacol. Exp. Ther., 177, 1-12). Agonist potency was expressed as EC50 (molar concentration of agonist producing 50% of the maximum response). Concentration-ratios (CRs) were determined from EC50 values in the presence and absence of antagonist and antagonist affinity estimates (pKB and pA2 values) were determined. All data are expressed as mean±s.e. mean.
# [3] = pKi reported on a scale of 1 through 5, read-out: 5HT7 (pKi) (converted)
# [4] = pKi reported on a scale of 1 through 5, read-out: M3 (pKi) (converted)
# [5] = pKi reported on a scale of 1 through 5, read-out: D2L (pKi) (converted)
# [6] = read-out: 5HT2A (pKb) (converted)
# T2 sequence (P20309 whole entry): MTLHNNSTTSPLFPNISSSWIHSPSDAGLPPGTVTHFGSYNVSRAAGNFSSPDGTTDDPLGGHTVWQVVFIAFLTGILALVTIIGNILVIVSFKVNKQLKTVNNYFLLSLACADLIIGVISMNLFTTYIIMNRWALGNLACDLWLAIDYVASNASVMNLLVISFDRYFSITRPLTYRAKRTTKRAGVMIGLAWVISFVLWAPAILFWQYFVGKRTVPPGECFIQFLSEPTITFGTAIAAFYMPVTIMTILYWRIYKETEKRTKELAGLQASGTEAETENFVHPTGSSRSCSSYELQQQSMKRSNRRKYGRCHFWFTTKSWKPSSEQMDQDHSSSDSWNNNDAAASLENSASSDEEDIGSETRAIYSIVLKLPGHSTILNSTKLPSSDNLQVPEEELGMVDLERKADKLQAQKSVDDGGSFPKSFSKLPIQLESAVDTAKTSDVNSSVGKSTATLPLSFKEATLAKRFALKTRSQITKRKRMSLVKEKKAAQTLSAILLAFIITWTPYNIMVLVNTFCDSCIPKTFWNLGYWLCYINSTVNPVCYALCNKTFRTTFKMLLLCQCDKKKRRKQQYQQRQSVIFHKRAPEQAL
# T9 sequence (P14842 whole entry): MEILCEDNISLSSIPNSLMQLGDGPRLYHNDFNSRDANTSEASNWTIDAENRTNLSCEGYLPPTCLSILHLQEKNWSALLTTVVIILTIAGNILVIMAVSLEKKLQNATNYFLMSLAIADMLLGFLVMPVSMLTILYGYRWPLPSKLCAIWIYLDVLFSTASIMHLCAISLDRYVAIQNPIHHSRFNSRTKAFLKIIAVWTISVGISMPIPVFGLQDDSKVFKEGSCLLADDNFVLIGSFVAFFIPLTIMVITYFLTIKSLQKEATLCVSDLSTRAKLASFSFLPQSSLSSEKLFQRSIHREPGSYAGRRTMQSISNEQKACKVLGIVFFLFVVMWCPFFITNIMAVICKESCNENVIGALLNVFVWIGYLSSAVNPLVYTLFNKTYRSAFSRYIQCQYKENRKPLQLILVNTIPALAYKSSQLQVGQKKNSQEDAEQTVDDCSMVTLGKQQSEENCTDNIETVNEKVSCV
# T7 sequence (P14416 whole entry): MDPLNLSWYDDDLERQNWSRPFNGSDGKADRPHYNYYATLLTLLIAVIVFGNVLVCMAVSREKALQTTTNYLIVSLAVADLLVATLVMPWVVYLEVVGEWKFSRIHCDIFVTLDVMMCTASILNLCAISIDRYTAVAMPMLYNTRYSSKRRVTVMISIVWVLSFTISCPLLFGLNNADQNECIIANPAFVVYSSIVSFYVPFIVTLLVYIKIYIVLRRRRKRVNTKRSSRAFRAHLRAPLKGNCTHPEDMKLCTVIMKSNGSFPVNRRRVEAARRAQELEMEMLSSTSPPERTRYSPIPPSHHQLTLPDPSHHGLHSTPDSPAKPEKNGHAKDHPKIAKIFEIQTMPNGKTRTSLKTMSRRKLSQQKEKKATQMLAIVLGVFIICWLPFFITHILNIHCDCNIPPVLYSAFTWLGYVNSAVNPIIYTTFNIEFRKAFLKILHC
# T5 sequence (P14416 1-414 isoform P14416-2): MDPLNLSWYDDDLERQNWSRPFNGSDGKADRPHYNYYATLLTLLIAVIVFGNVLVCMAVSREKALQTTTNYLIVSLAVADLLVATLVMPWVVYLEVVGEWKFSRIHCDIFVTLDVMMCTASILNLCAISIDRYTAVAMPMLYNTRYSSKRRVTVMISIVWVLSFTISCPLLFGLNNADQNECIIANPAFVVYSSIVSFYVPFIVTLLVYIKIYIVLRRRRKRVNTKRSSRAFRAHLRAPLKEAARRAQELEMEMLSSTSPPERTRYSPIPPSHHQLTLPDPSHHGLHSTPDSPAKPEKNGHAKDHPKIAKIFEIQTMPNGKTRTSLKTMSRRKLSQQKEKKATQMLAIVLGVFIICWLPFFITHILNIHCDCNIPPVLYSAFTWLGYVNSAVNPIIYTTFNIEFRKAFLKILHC
# T1 sequence (P34969 whole entry): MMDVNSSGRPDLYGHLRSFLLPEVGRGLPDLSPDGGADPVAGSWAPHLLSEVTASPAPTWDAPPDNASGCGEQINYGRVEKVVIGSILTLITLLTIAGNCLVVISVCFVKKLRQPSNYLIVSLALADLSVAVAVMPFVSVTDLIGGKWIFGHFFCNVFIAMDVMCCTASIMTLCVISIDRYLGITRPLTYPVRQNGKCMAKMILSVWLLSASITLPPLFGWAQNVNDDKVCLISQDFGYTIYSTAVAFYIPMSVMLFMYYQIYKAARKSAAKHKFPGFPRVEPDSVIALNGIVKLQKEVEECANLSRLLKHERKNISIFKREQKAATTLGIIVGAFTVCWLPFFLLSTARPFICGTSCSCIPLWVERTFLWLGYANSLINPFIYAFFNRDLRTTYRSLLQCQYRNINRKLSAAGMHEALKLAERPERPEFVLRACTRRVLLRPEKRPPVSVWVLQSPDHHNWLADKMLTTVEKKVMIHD
# T8 sequence (P35367 whole entry): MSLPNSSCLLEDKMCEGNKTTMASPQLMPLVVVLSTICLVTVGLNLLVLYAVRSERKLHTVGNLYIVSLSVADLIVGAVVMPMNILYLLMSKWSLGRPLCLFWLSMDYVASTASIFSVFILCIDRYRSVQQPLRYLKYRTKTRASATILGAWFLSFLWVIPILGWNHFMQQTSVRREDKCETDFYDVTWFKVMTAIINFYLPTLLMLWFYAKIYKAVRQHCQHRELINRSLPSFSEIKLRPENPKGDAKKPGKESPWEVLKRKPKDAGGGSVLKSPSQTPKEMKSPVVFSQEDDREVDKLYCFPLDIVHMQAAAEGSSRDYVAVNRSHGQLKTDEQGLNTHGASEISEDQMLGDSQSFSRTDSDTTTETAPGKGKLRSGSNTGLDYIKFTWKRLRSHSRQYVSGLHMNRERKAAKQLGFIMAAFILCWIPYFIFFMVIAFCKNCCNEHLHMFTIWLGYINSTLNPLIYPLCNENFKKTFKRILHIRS
Structure (SMILES),Ki (human 5HT7 receptors; [3]),Ki (human M3 receptors; [4]),Ki (human 5HT1A receptors),Ki (human M1 receptors),Ki [1],Ki (human 5HT2C receptors),"Ki [2, 5]",Ki (human H1 receptors),Kb (5-HT2A receptor; [6]),Ki (human 5HT7 receptors),Ki (human M3 receptors),Ki [2],Kb (5-HT2A receptor)
"O=C(C[C@H]1CN(C2=Nc3cc(Cl)ccc3Oc3ccccc32)CCN1)NCC(O)C(F)(F)F (stereo partly drawn) [GF, 2-((S)-4-((E)-8-chlorodibenzo[b,f][1,4]oxazepin-11-yl)piperazin-2-yl)-N-(3,3,3-trifluoro-2-hydroxypropyl)acetamide]",0.631 to 1.55 µM,> 10 µM,0.1 to 0.977 µM,> 10 µM,0.631 to 2.45 µM,0.01 to 0.0977 µM,2.51 to 9.77 µM,0.01 to 0.0977 µM,0.01 to 0.0309 µM,–,–,–,–
"CN1CCN(C2=Nc3cc(Cl)ccc3Oc3ccccc32)C[C@@H]1CC(=O)OC1CCCC1 [DX, (S,E)-cyclopentyl 2-(4-(8-chlorodibenzo[b,f][1,4]oxazepin-11-yl)-1-methylpiperazin-2-yl)acetate]",> 10 µM,> 10 µM,1 to 9.77 µM,5.01 to 9.77 µM,2.51 to 9.77 µM,0.1 to 0.977 µM,2.51 to 9.77 µM,0.1 to 0.977 µM,0.01 to 0.0309 µM,–,–,–,–
"O=C(C[C@H]1CN(C2=Nc3cc(Cl)ccc3Oc3ccccc32)CCN1)NCCCO [Compound FS, (S,E)-2-(4-(8-chlorodibenzo[b,f][1,4]oxazepin-11-yl)piperazin-2-yl)-N-(3-hydroxypropyl)acetamide]",< 0.617 µM,> 10 µM,0.01 to 0.0977 µM,> 10 µM,0.631 to 2.45 µM,0.01 to 0.0977 µM,0.631 to 2.45 µM,≤ 0.00977 µM,0.00316 to 0.00977 µM,–,–,–,–
"O=C(C[C@H]1CN(C2=Nc3cc(Cl)ccc3Oc3ccccc32)CCN1)NC[C@@H]1CCCO1 [FR, 2-((S)-4-((E)-8-chlorodibenzo[b,f][1,4]oxazepin-11-yl)piperazin-2-yl)-N-(((S)-tetrahydrofuran-2-yl)methyl)acetamide]",0.631 to 1.55 µM,> 10 µM,0.01 to 0.0977 µM,> 10 µM,0.158 to 0.617 µM,0.01 to 0.0977 µM,0.158 to 0.617 µM,0.01 to 0.0977 µM,0.00316 to 0.00977 µM,–,–,–,–
"O=C(C[C@H]1CN(C2=Nc3cc(Cl)ccc3Oc3ccccc32)CCN1)NCCO [FA, (S,E)-2-(4-(8-chlorodibenzo[b,f][1,4]oxazepin-11-yl)piperazin-2-yl)-N-(2-hydroxyethyl)acetamide]",0.631 to 1.55 µM,> 10 µM,0.01 to 0.0977 µM,> 10 µM,0.631 to 2.45 µM,0.01 to 0.0977 µM,0.631 to 2.45 µM,0.01 to 0.0977 µM,0.00316 to 0.00977 µM,–,–,–,–
"O=C(C[C@H]1CN(C2=Nc3cc(Cl)ccc3Oc3ccccc32)CCN1)O[C@H]1CN2CCC1CC2 [DT, (R)-quinuclidin-3-yl 2-((S)-4-((E)-8-chlorodibenzo[b,f][1,4]oxazepin-11-yl)piperazin-2-yl)acetate]",–,–,0.1 to 0.977 µM,5.01 to 9.77 µM,> 10 µM,0.1 to 0.977 µM,–,1 to 9.77 µM,–,> 10 µM,> 10 µM,> 10 µM,> 0.1 µM
"O=C(C[C@H]1CN(C2=Nc3cc(Cl)ccc3Oc3ccccc32)CCN1)NCC(F)F [FQ, (S,E)-2-(4-(8-chlorodibenzo[b,f][1,4]oxazepin-11-yl)piperazin-2-yl)-N-(2,2-difluoroethyl)acetamide]",0.631 to 1.55 µM,> 10 µM,0.01 to 0.0977 µM,5.01 to 9.77 µM,0.631 to 2.45 µM,0.01 to 0.0977 µM,0.631 to 2.45 µM,0.01 to 0.0977 µM,0.01 to 0.0309 µM,–,–,–,–
"O=C(C[C@H]1CN(C2=Nc3cc(Cl)ccc3Oc3ccccc32)CCN1)O[C@@H]1CN2CCC1CC2 [DU, (S)-quinuclidin-3-yl 2-((S)-4-((E)-8-chlorodibenzo[b,f][1,4]oxazepin-11-yl)piperazin-2-yl)acetate]",–,–,0.01 to 0.0977 µM,5.01 to 9.77 µM,2.51 to 9.77 µM,0.1 to 0.977 µM,–,0.1 to 0.977 µM,–,3.98 to 9.77 µM,> 10 µM,2.51 to 9.77 µM,> 0.1 µM

# From US20120178738A1, “DIBENZO [B,F] [1,4]OXAZAPINE COMPOUNDS” (ARYX THERAPEUTICS, INC., priority 2007, published 2012)
